# Read-outs that look alike come from different tables or passages of the source.
# Legend:
# HCV genotype 1b replicon = experiment: HCV Replicon Assay (Zluc, luciferase); type: cell-based; details: Zluc cells (Huh-7-derived), 72 hours of incubation
# Method: Huh-7-derived cell line (Zluc) that harbors an HCV genotype 1b replicon and a luciferase reporter gene was grown in Dulbecco's Modified Eagle Medium (DMEM) supplemented with 10% fetal bovine serum, 2 mM GlutaMAX, 1% MEM nonessential amino acids, 100 IU/mL penicillin, 100 μg/mL streptomycin, and 0.5 mg/mL Geneticin® (G418). For dose response testing the cells were seeded in 96-well plates at 7.5×10^3 cells per well in a volume of 50 μL, and incubated at 37° C./5% CO2. Drug solutions were made up freshly in Huh-7 media as 2× stocks. Ten additional 5-fold dilutions were prepared from these stocks in DMEM without G418. At least three hours after Zluc cells were seeded, drug treatment was initiated by adding 50 μL of drug dilutions to the plates in duplicate. Final concentrations of drug ranged from 100 μM to […]. Cells were then incubated at 37° C./5% CO2. Alternatively, compounds were tested at two concentrations (1 μM and 10 μM). […] For this, media was removed from the plates via gentle tapping. Fifty microliters of ONE-glo luciferase assay reagent was added to each well. The plates were shaken gently for 3 min at room temperature and luminescence was measured on a Victor^3 V 1420 multilabel counter (Perkin Elmer) with a 1 second read time using a 700 nm cut-off filter. The EC50 values were calculated from dose response curves from the resulting best-fit equations determined by Microsoft Excel and XLfit 4.1 software. When screening at two fixed concentrations, the results were expressed as % inhibition at 1 μM and 10 μM.
# Zluc cells = experiment: Cytotoxicity evaluation, CellTiter-Blue Cell Viability Assay; type: cell-based; details: read-out: HCV Replicon CC50
# Method: (§1) For cytotoxicity evaluation, Zluc cells were treated with test compound as described herein, and cell viability was monitored using the CellTiter-Blue Cell Viability Assay (Promega) by adding 20 μL of the assay solution to each well. The plates were then incubated at 37° C./5% CO2 for at least 3 hours.
# [1] = CD-1 mice, liver triphosphate, normalised to 1 μmol/kg; for Ms Liver TP AUC (pmol · hr/g at 1 μmol/kg) following a single 2 mg/kg dose: single oral 2 mg/kg dose
# Method: A single oral dose of test compound at 10 mg/kg and/or 2 mg/kg in PEG 200 (dose volume 5 mL/kg) was administered to nine CD-1 male mice. Five untreated animals were used for the collection of control plasma and liver. Terminal plasma and liver samples were collected from three animals per time point at 4, 12 and 24 hours post dose. Liver specimens were collected from all animals immediately after the incision. Freezing forceps stored in liquid nitrogen were used to freeze the liver before excision. Only liver samples were analyzed for triphosphate levels.
# Liver samples were analyzed for the active species nucleoside triphosphate by LC-MS/MS. The triphosphate levels were assayed by homogenizing (on ice) a known weight of mouse liver with 4× volume of 0.95 M trichloroacetic acid (TCA) in water. Internal standard solution was added to the homogenate and mixed. Sample homogenates were centrifuged at 16.1 krpm for 5 minutes. Supernatants were transferred to 96 well plates and injected onto the LC-MS/MS system. The samples were chromatographed on a Luna NH2 column using a gradient system of ammonium acetate (1 mM to 20 mM and pH 8.0 to pH 10.0) in water and acetonitrile (70:30). The analyte was detected and quantified by tandem mass spectrometry using the analyte specific MRM transition on an API4000 equipped with a Turbo Ionspray® interface.
# [2] = biological target: T1, wild-type HCV genotype 1b NS5B protein (recombinant HCV polymerase) (Hepatitis C virus genotype 1b, UniProt Q9WMX2); experiment: HCV Polymerase Enzyme Assay, wild-type; type: biochemical
# T1 construct: HCV genotype 1b NS5B protein were used to generate recombinant HCV polymerases (with a deletion of the 21 carboxy terminal amino acids); made in house
# Excerpt: (§2) Test compounds in the form of nucleoside triphosphates were examined for inhibitory activity against purified HCV polymerase in a standard assay. Bacterial expression constructs encoding the approximately 65 kDa HCV genotype 1b NS5B protein were used to generate recombinant HCV polymerases (with a deletion of the 21 carboxy terminal amino acids). Both the wild-type genotype 1b protein and protein containing the S282T mutation were expressed and purified for use in the enzymatic activity assay.
# (§3) The enzymatic activity assay measured the inhibitory effect of increasing concentrations of test compound on the incorporation of α-[^33P]-labeled nucleotide into trichloroacetic acid-precipitable material. Recombinant polymerase and synthetic RNA template were combined in reaction buffer containing ribonucleoside triphosphates, α-[^33P]-labeled nucleotide and eight concentrations of test compound in three-fold dilutions. Reactions were incubated for two hours at 30° C.
# (§4) Reactions were terminated by the addition of ice-cold trichloroacetic acid and sodium pyrophosphate to promote precipitation of newly-synthesized ribonucleic acid. Precipitable material from the reactions was collected by filtration onto 96-well filter plates, washed extensively with water, and quantified by liquid scintillation.
# (§5) The inhibitory activity of test compounds was determined by fitting results to dose-response curves using XLfit software.
# [3] = biological target: T2, HCV genotype 1b NS5B protein containing the S282T mutation (Hepatitis C virus genotype 1b, UniProt Q9WMX2, S2701T); experiment: HCV Polymerase Enzyme Assay, S282T; type: biochemical; details: nucleoside triphosphates; genotype 1b NS5B with S282T mutation
# T2 construct: HCV genotype 1b NS5B protein were used to generate recombinant HCV polymerases (with a deletion of the 21 carboxy terminal amino acids); made in house
# Excerpt: as §2
# as §3, with “Reactions were incubated for two hours at 30° C.” left out
# as §4, §5
# [4] = Cytotoxicity evaluation, CellTiter-Blue Cell Viability Assay; type: cell-based; details: human, Zluc cells, read-out: HCV Replicon CC50
# Method: as §1
# [5] = Liver triphosphate after a single oral dose in cynomolgus monkeys; type: in vivo
# Method: For Compound 2b, isomer 1, a single oral dose at 10 mg/kg in PEG 200 (dose volume 3 mL/kg) was administered to three cynomolgus monkeys. One Untreated animal was used for the collection of control liver. Terminal liver samples were collected from three animals at 6 hours post dose.
# [6] = read-out: Wild-Type IC50, nucleoside triphosphates, wild-type genotype 1b NS5B
smiles,measurement,setting,value
"CC(C)OC(=O)[C@H](C)NP(=O)(OC[C@@]1(F)O[C@@H](n2ccc(=O)[nH]c2=O)[C@H](O)[C@@H]1O)Oc1ccccc1 (single isomer, unassigned) [Compound 2b Diastereomer 2]",EC50,HCV genotype 1b replicon; listed as 2b Diastereomer 2,1 to 10 µM
same,CC50,Zluc cells,> 50 µM
same,Ms Liver TP AUC (pmol · hr/g at 1 μmol/kg) following a single 2 mg/kg dose,[1],+++++ (1600 < +++++)
Nc1ccn(C2O[C@](F)(COP(=O)(O)OP(=O)(O)OP(=O)(O)O)[C@@H](O)[C@H]2O)c(=O)n1 (stereo partly shown) [Compound 105],IC50,[2]; [6],0.25 to 1 µM
C[C@]1(O)[C@H](n2cc(Br)c(=O)[nH]c2=O)O[C@](F)(COP(=O)(O)OP(=O)(O)OP(=O)(O)O)[C@H]1O [Compound 101],IC50,[2],1 to 10 µM
O=c1ccn(C2O[C@](F)(COP(=O)(O)OP(=O)(O)OP(=O)(O)O)[C@@H](O)[C@H]2O)c(=O)[nH]1 (stereo partly shown) [Compound 102],IC50,[2]; [6],0.25 to 1 µM
same,IC50,[3],< 0.25 µM
O=c1[nH]c(=O)n([C@@H]2O[C@](F)(COP(=O)(O)OP(=O)(O)OP(=O)(O)O)[C@@H](O)[C@H]2O)cc1Br [Compound 104],IC50,[2],1 to 10 µM
"CC(C)OC(=O)[C@H](C)NP(=O)(OC[C@@]1(F)O[C@@H](n2ccc(=O)[nH]c2=O)[C@H](O)[C@@H]1O)Oc1ccccc1 (single isomer, unassigned) [Compound 2b Diastereomer 1]",EC50,HCV genotype 1b replicon; listed as 2b Diastereomer 1,> 10 µM
same,CC50,[4],> 50 µM
same,Nucleoside triphosphate in Liver C6 (pmol/g) at 1 μmol/kg,"[5]; 6 hr post dose, normalised to 1 μmol/kg",+ (+ ≦ 10 pmol/g)
same,Nucleoside triphosphate in Liver C6 (pmol/g) at 10 mg/kg,"[5]; single oral 10 mg/kg, concentration at 6 hr post dose",++++ (100 pmol/g < ++++ ≦ 160 pmol/g)
same,Ms Liver TP AUC (pmol · hr/g at 1 μmol/kg) following a single 2 mg/kg dose,[1],+++++ (1600 < +++++)
same,Ms Liver TP AUC (pmol · hr/g at 1 μmol/kg) following a single 10 mg/kg dose,[1]; single oral 10 mg/kg dose,+++++ (1600 < +++++)
Nc1nc2c(ncn2[C@@H]2O[C@](F)(COP(=O)(O)OP(=O)(O)OP(=O)(O)O)[C@@H](O)[C@H]2O)c(=O)[nH]1 [Compound 103],IC50,[2],< 0.25 µM
same,IC50,[3],< 0.25 µM
Nc1ncnc2c1ncn2[C@@H]1O[C@](F)(COP(=O)(O)OP(=O)(O)OP(=O)(O)O)[C@@H](O)[C@H]1O [Compound 106],IC50,[2],> 10 µM
"CC(C)OC(=O)[C@H](C)NP(=O)(OC[C@@]1(F)O[C@@H](n2cnc3c(=O)[nH]c(N)nc32)[C@@H](O)C1O)Oc1ccccc1 (single isomer, unassigned) [Compound 3b Diastereomer 2]",EC50,"HCV genotype 1b replicon; Hepatitis C virus, 72 h",0.25 to 1 µM
same,CC50,[4],> 50 µM
